This test deals with T1, human IDO1 (Homo sapiens, UniProt P14902).
T1 construct: expressed in transfected cells
T1 sequence (P14902 whole entry): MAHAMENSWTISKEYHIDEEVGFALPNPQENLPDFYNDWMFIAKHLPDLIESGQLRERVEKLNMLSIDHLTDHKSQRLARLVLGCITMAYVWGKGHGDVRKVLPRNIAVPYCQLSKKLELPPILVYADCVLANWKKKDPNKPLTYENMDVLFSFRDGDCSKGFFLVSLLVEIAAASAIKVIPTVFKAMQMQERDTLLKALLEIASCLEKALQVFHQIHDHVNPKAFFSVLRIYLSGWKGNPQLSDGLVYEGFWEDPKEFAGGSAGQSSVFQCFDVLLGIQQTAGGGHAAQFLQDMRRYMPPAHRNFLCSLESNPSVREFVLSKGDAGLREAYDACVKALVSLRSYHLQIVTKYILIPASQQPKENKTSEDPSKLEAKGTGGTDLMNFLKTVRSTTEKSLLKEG
The test is described as follows: IDO inhibition assay in HEK293 cells stably expressing human IDO1 (kynurenine, Ehrlich reagent, absorbance 490 nm). It counts as cell-based. The following applies: 20 hours incubation, read-out: IDO1 HEK Human IC50. The procedure:
HEK293 cells were transfected with a pCDNA-based mammalian expression vector harboring human IDO1 cDNA (NM 002164.2) by electroporation. They were cultured in medium (DMEM with 10% FBS) containing 1 mg/ml G418 for two weeks. Clones of HEK293 cells that stably expressed human IDO1 protein were selected and expanded for IDO inhibition assay. The human IDO1/HEK293 cells were seeded at 10,000 cells per 50 μL per well with RPMI/phenol red free media contains 10% FBS in a 384-well black wall clear bottom tissue culture plate (Matrix Technologies LLC) 100 nL of certain concentration of compound was then added to each well using ECHO liquid handling systems. The cells were incubated for 20 hours in 37° C. incubator with 5% CO2. The compound treatments were stopped by adding trichloroacetic acid (Sigma-Aldrich) to a final concentration at 0.2%. The cell plate was further incubated at 50° C. for 30 minute. The equal volume supernatant ([…]) and 0.2% (w/v) Ehrlich reagent (4-dimethylaminobenzaldehyde, Sigma-Aldrich) in glacial acetic acid were mixed in a new clear bottom 384-well plate. This plate was then incubated at room temperature for 30 minute. The absorbance at 490 nm was measured on Envision plate reader. Compound IC50 values were calculated using the counts of 500 nM of a reference standard treatment as one hundred percent inhibition, and counts of no compound but DMSO treatment as zero percent inhibition.
Regarding `COc1ccc(-c2csc(N[C@H](C)[C@H]3CC[C@@H](c4ccnc5ccc(F)cc54)CC3)n2)cc1` [Example 36, N—((R)-1-((1s,4S)-4-(6-Fluoroquinolin-4-yl)cyclohexyl)ethyl)-4-(4-methoxyphenyl)thiazol-2-amine], the IC50 (in general, the concentration that inhibits the measured activity by half) is 729 nM.
For `C[C@@H](Nc1nc(-c2ccc(Cl)cc2)cs1)[C@H]1CC[C@@H](c2ccnc3ccc(F)cc32)CC1` [Example 37, 4-(4-Chlorophenyl)-N—((R)-1-((1s,4S)-4-(6-fluoroquinolin-4-yl)cyclohexyl)ethyl)thiazol-2-amine] the value was 858 nM.
For `C[C@@H](Nc1nnc(-c2ccc(Cl)cc2)[nH]1)[C@H]1CC[C@@H](c2ccnc3ccc(F)cc32)CC1` [Example 40, 5-(4-Chlorophenyl)-N—((R)-1-((1s,4S)-4-(6-fluoroquinolin-4-yl)cyclohexyl)ethyl)-4H-1,2,4-triazol-3-amine], the IC50 worked out at 126 nM.
With `COc1ccc(-c2nnc(N[C@H](C)[C@H]3CC[C@@H](c4ccnc5ccc(F)cc54)CC3)[nH]2)cc1` [Example 42, N—((R)-1-((1s,4S)-4-(6-Fluoroquinolin-4-yl)cyclohexyl)ethyl)-5-(4-methoxyphenyl)-4H-1,2,4-triazol-3-amine], the IC50 was 57.2 nM.
As to `C[C@@H](c1ncc(-c2ccc(Cl)cc2)o1)[C@H]1CC[C@@H](c2ccnc3ccc(F)cc32)CC1` [Example 43, 5-(4-Chlorophenyl)-2-((R)-1-((1s,4S)-4-(6-fluoroquinolin-4-yl)cyclohexyl)ethyl)oxazole], the IC50 worked out at 288 nM.
For `C[C@@H](c1ncc(-c2ccc(F)cc2)o1)[C@H]1CC[C@@H](c2ccnc3ccc(F)cc32)CC1` [Example 45, 5-(4-Fluorophenyl)-2-((R)-1-((1s,4S)-4-(6-fluoroquinolin-4-yl)cyclohexyl)ethyl)oxazole] the value was 182 nM; for `C[C@@H](c1ncc(-c2ccc(C#N)cc2)o1)[C@H]1CC[C@@H](c2ccnc3ccc(F)cc32)CC1` [Example 46, 4-(2-((R)-1-((1s,4S)-4-(6-Fluoroquinolin-4-yl)cyclohexyl)ethyl)oxazol-5-yl)benzonitrile], 386 nM.
For `C[C@@H](c1ncc(-c2ccc(F)cc2)[nH]1)[C@H]1CC[C@@H](c2ccnc3ccc(F)cc32)CC1` [Example 47, 6-Fluoro-4-((1S,4s)-4-((R)-1-(5-(4-fluorophenyl)-1H-imidazol-2-yl)ethyl)cyclohexyl)quinoline] the value was 18.3 nM; for `CCC(Nc1nnc(-c2ccc(OC)cc2)o1)C1CCC(c2ccnc3ccc(F)cc23)CC1` (stereo not drawn) [Example 50, N-(1-((1r,4r)-4-(6-Fluoroquinolin-4-yl)cyclohexyl)propyl)-5-(4-methoxyphenyl)-1,3,4-oxadiazol-2-amine], 122 nM.
As for `CCC(c1nnc(-c2ccc(OC(C)C)cc2)[nH]1)C1CCC(c2ccnc3ccc(F)cc23)CC1` (stereo not drawn) [Example 51, 6-Fluoro-4-(4-(1-(5-(4-isopropoxyphenyl)-4H-1,2,4-triazol-3-yl)propyl)cyclohexyl)quinoline], the figure is 71.1 nM.
As to `CCC(c1nnc(-c2ccc(OC(C)C)cc2)[nH]1)C1CCC(c2ccnc3ccc(F)cc23)CC1` (stereo not drawn) [Example 53, 6-Fluoro-4-(4-(1-(5-(4-isopropoxyphenyl)-4H-1,2,4-triazol-3-yl)propyl)cyclohexyl)quinoline], the IC50 was 144 nM.
As for `CCC(c1nnc(-c2ccc(OC(C)C)cc2)o1)C1CCC(c2ccnc3ccc(F)cc23)CC1` (stereo not drawn) [Example 54, 2-(1-(4-(6-Fluoroquinolin-4-yl)cyclohexyl)propyl)-5-(4-isopropoxyphenyl)-1,3,4-oxadiazole], the figure is 68.8 nM.

(Values after US11351164B2, “Inhibitors of indoleamine 2,3-dioxygenase and methods of their use” (BRISTOL-MYERS SQUIBB COMPANY, priority 2016, dated 2022).)
